Square brackets hold non-standard residues; d marks the D form. Ends that are not written are not given here. Peptide text beside a SMILES is read from it. * marks the point of attachment. Phe(4-CN) = N#Cc1ccc(C[C@H](N)C(=O)O)cc1; Palmitoyl = CCCCCCCCCCCCCCCC(=O)*; rhodamine = not defined here; Nle = CCCC[C@H](N)C(=O)O; Dab = NCC[C@H](N)C(=O)O
Legend:
MCF7 breast cancer cells = assay: MTT assay of growth inhibition / cytotoxicity in MCF7 cells; assay type: cell-based, human; conditions: for Cell growth, % of control: 5 μM, MTT assay 48 hours after exposure
Procedure: Activity was determined by MTT assay 48 hours after exposure of the MCF7 cells to the test compounds.
Peptides were constructed based on variations of the amino acid sequence of the second helix of STAT1 and STAT5a. ε-palmitoyl lysine was substituted for penetratin as a cell-penetrating motif Several residues of penetratin sequence were preserved in the lipopeptide derivatives, which served as a linking sequence. The peptides and peptidomimetics were tested for growth inhibitory and cytotoxic activity in MCF7 cells using an MTT assay as described in Example 2.
Retro-inverso peptide analogues were prepared comprising variants of the sequence of helix 2 of STAT3. STAT3-Hel2A-2 (see Example 3) was used as a starting sequence, in which all but three residues of the original penetratin sequence was replaced with palmitic acid. The variants were produced by systematically truncating and substituting the base sequence. The compounds were used to treat MCF7 breast cancer cells. IC50 values were determined 48 hours after exposing the cells to the test compounds.

STAT3 signaling = assay: Luciferase reporter assay (Mercury JAK-STAT Pathway Profiling system, GAS or STAT3 elements) in MCF-7 cells; assay type: cell-based, human; set-up: concentration or dose not given beside the values; conditions: luciferase reporter with GAS or STAT3 elements, basal expression, within one hour after treatment
Procedure: Selected peptides were tested for inhibition of STAT3 signaling in breast cancer cell lines by luciferase reporter assay. The assay employed the Mercury JAK-STAT Pathway Profiling system (Clontech), which includes the enhancer elements GAS (interferon-γ activating sequence) or STAT3 (a modified GAS sequence) introduced as three tandem copies upstream of the TA promoter in a luciferase reporter vector. STAT3 helix 2 analogs reduced basal expression of the reporter construct containing the GAS, or STAT3 elements in MCF-7 cells within one hour after treatment.

[1] = test system: STAT3-dependent transcription (APRE reporter); assay: APRE luciferase reporter in MCF-7 cells activated by LIF; assay type: cell-based, human; conditions: basal and LIF-stimulated
Source text: (§1) To evaluate effects of inhibitors on cytokine-activated transcription, luciferase reporter vectors APRE and ISRE were employed (Takeda et al., J. Endocrinol. 159, 323-330 (1998); Ivanova et al., J. Mol. Biol. 340, 641-653 (2004)). APRE was activated in MCF-7 cells by LIF.

[2] = test system: STAT1-dependent transcription (ISRE reporter); assay: ISRE luciferase reporter in MCF-7 cells activated by IFN-γ; assay type: cell-based, human; conditions: IFN-γ-stimulated
Source text: as §1

STAT1 = target: T1, STAT1 (Homo sapiens, UniProt P42224); assay: STAT1 tyrosine phosphorylation and expression in cytokine-treated breast cancer cells; assay type: cell-based; conditions: pretreatment 1 hour
T1 construct: endogenous in cells; host or cells: MCF-7 and MDA-MB-231
T1 sequence (P42224 1-750): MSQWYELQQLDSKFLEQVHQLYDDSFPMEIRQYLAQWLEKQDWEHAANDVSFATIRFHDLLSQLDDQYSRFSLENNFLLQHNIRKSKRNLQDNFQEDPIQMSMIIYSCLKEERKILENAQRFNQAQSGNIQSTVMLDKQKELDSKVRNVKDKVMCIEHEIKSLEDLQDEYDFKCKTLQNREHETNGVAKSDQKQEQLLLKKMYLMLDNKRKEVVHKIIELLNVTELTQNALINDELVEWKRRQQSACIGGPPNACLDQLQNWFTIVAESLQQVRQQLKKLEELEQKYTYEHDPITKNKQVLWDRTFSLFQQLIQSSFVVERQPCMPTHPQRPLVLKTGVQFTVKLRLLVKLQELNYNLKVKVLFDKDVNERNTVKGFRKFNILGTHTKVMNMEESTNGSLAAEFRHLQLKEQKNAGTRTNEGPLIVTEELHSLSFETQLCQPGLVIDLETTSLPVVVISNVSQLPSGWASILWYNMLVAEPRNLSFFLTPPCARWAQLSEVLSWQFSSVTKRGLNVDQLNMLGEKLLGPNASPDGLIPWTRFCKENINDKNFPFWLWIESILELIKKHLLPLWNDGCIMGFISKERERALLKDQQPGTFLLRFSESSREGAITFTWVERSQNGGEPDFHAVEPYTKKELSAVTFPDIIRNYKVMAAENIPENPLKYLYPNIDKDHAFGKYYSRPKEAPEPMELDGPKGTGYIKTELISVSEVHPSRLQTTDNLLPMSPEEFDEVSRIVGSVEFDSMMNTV
Procedure: (§2) MCF-7 and MDA-MB-231 cells were treated with Leukemia Inhibitory Factor (LIF) to activate STAT3 and with Interferon gamma (IFN-γ) to activate STAT1 signaling. In MCF-7 cells, LIF induced selective STAT3 tyrosine phosphorylation and IFN-γ induced selective STAT1 tyrosine phosphorylation. In MDA-MB-231 cells, however, each cytokine induced both STAT3 and STAT1 tyrosine phosphorylation.

STAT3 = target: T2, STAT3 (Homo sapiens, UniProt P40763); assay: STAT3 tyrosine phosphorylation and expression in cytokine-treated breast cancer cells; assay type: cell-based; conditions: pretreatment 1 hour
T2 construct: endogenous in cells; host or cells: MCF-7 and MDA-MB-231
Procedure: as §2

[3] = target: T3, STAT3 tagged with eGFP (eGFP-STAT3) (Homo sapiens, UniProt P40763); assay: FRET in living cells expressing eGFP-STAT3; assay type: binding; conditions: HEK293 cells stably expressing eGFP-STAT3, 5 μM, one hour
T3 construct: expressed in transfected cells; host or cells: HEK293
Procedure: Fluorescence Resonance Energy Transfer (FRET) method was used to determine whether STAT3-HEL2A-2 (see Example 3) interacts with STAT3 in living cells. HEK293 cells stably expressing STAT3 tagged with eGFP on its N-terminus (eGFP-STAT3) were treated for one hour with 5 μM of STAT3-HEL2A-2 labeled with rhodamine. An additional cysteine residue was positioned at the C-terminus of penetratin to facilitate labeling. Excitation of eGFP (donor) was facilitated using a 488-nm light source, and the emission spectrum was detected. In the absence of energy transfer between eGFP and rhodamine, excitation of eGFP would lead to an emission peak at 520-540 nm, whereas energy transfer from eGFP to an adjacent rhodamine fluorochrome acceptor would cause an emission in the 560-600 nm range. […] The photobleaching of rhodamine restored the fluorescence of eGFP.
Cells expressing eGFP-STAT3, eGFP-STAT1, or eGFP were treated with rhodamine-labeled STAT3-HEL2A-2 (see Example 6). Excitation of eGFP was facilitated, and the emission spectrum detected, in accordance with the methods described in Example 6. FRET efficiency was calculated using equation 1-D0/D1, where D0 is fluorescence intensity of eGFP before rhodamine photobleaching and D1 is the intensity after rhodamine photobleaching.

[4] = MCF-7 and MDA-MB-231 cells treated with LIF or IFN-γ

T2 sequence (P40763 whole entry): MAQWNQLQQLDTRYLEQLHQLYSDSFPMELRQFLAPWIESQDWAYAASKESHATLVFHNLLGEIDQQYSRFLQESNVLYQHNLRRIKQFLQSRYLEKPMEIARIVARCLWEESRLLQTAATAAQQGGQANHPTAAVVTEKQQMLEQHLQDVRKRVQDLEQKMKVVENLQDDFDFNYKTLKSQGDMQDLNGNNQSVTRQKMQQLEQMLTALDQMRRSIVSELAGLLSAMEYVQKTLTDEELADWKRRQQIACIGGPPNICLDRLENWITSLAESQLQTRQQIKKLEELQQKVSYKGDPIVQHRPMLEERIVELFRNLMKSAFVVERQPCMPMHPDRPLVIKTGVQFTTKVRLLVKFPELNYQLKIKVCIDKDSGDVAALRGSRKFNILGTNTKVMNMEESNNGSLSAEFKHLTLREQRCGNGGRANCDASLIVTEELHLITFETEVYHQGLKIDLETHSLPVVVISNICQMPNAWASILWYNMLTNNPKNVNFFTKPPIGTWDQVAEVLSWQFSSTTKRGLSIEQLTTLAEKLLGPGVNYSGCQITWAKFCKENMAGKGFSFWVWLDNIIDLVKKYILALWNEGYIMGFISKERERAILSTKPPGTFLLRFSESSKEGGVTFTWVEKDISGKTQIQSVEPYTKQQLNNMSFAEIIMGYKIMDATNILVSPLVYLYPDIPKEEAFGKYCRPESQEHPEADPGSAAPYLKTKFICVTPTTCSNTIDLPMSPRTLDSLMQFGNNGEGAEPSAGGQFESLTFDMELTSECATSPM
T3 sequence (P40763 whole entry): as above

| Compound | Cell growth, % of control (MCF7 breast cancer cells) [%] | Activity, % of control (STAT3 signaling) [%] | further results |
| --- | --- | --- | --- |
| CCCCCCCCCCCCCCCC(=O)N[C@H](CCCCN)C(=O)N[C@H](Cc1ccc(O)cc1)C(=O)N[C@H](CC(C)C)C(=O)N[C@H](CCCCN)C(=O)N[C@H](Cc1c[nH]cn1)C(=O)N[C@H](CC(C)C)C(=O)N[C@H](CCC(N)=O)C(=O)N[C@H](CCC(=O)O)C(=O)N[C@H](CC(C)C)C(=O)N[C@H](Cc1ccc(O)cc1)C(=O)N[C@H](CCCNC(=N)N)C(=O)N[C@@H](C(=O)N[C@H](CC(=O)O)C(N)=O)[C@H](C)O [St3-H2a-2a-Pa17] (Palmitoyl-[dK][dY][dL][dK][dH][dL][dQ][dE][dL][dY][dR][dT][dD]-NH2; C-terminus assumed) | – | – | IC50 (MCF7 breast cancer cells; read-out: IC50 (concentration causing 50% growth inhibition), 48 hours after exposure, Table 8): 1.8 µM |
| Ac-ATRYLEQLHKLY (Ac-ATRYLEQLHKLY-penetratin; also: penetratin fused C-terminally) [Hel2A-5-Pen, penetratin fused to the C-terminus] | 85 ± 5 | – | – |
| Ac-DTRYLEQLHALY (Ac-DTRYLEQLHALY-penetratin; also: penetratin fused C-terminally) [Hel2A-3-Pen, penetratin fused to the C-terminus] | 93 ± 6 | 89 ± 9 | – |
| Ac-DTRYLEQLHELY (Ac-DTRYLEQLHELY-penetratin; also: penetratin fused C-terminally) [Hel2A-4-Pen, penetratin fused to the C-terminus] | 91 ± 6 | – | – |
| Ac-DTRYLEQLHKLY (Ac-DTRYLEQLHKLY-penetratin; also: penetratin fused C-terminally) [Ac-Hel2A-2a-Pen, penetratin fused to the C-terminus] | 45 ± 5 | – | – |
| DSKFLEQVHKLY-penetratin [STAT1-Hel2A-2] | – | – | Effect on APRE reporter expression [1]: inhibited both basal and stimulated expression; Effect on ISRE reporter activation [2]: prevented cytokine-stimulated reporter activation; Effect on expression level of STAT1 protein (STAT1; MCF-7 and MDA-MB-231 cells): did not change; Effect on tyrosine phosphorylation of STAT1 (STAT1; [4]): did not affect; Effect on expression level of STAT3 protein (STAT3; MCF-7 and MDA-MB-231 cells): did not change; Effect on tyrosine phosphorylation of STAT3 (STAT3; [4]): did not affect |
| DTKYLEQLHKLYS (DTKYLEQLHKLYS-penetratin) [Hel2D-Pen, penetratin fused to the C-terminus] | 42 ± 4 | – | – |
| DTRYLEQLHDabLY (DTRYLEQLH[Dab]LY; also: penetratin fused C-terminally) [Hel2I-Pen, penetratin fused to the C-terminus] | 25 ± 4 | 53 ± 6 | – |
| DTRYLEQLHDabLYS (DTRYLEQLH[Dab]LYS; also: penetratin fused C-terminally) [Hel2F-Pen, penetratin fused to the C-terminus] | 60 ± 5 | – | – |
| DTRYLEQLHKLCyPheS (DTRYLEQLHKL[Phe(4-CN)]S; also: penetratin fused C-terminally) [Hel2C-Pen, CyPhe is 4-cyano phenylalanine; penetratin fused to the C-terminus] | 38 ± 4 | – | – |
| DTRYLEQLHKLY (DTRYLEQLHKLY-penetratin) [Hel2A-2a-Pen, penetratin fused to the C-terminus] | 65 ± 5 | – | – |
| DTRYLEQLHKLYS (DTRYLEQLHKLYS-penetratin) [Hel2A-Pen, penetratin fused to the C-terminus] | 44 ± 5 | 100 ± 9 | – |
| DTRYLQELHKLYS (DTRYLQELHKLYS-penetratin) [Hel2E-Pen, penetratin fused to the C-terminus] | 46 ± 4 | – | – |
| LDTKYLEQLHDabLY (LDTKYLEQLH[Dab]LY; also: penetratin fused C-terminally) [Hel2K-Pen, penetratin fused to the C-terminus] | 8 ± 2 | – | – |
| LDTRYLEQLHDabLY (LDTRYLEQLH[Dab]LY; also: penetratin fused C-terminally) [Hel2H-Pen, penetratin fused to the C-terminus] | 45 ± 4 | 43 ± 4 | – |
| LDTRYLEQLHKLYS (LDTRYLEQLHKLYS-penetratin) [Hel2B-Pen, penetratin fused to the C-terminus] | 82 ± 6 | 100 ± 9 | – |
| LDTRYLEQLHQLYS (LDTRYLEQLHQLYS-penetratin) [Hel2-Pen] | 73 ± 5 | 56 ± 5 | – |
| rhodamine-labeled STAT3-HEL2A-2: STAT3-HEL2A-2 labeled with rhodamine via an additional cysteine residue at the C-terminus of penetratin (LDTRYLEQLHKLYRQIKIWFPNRR[Nle]KWKKC(rhodamine); reading uncertain) | – | – | Quenching of the normal fluorescence of eGFP [3]: 90% |
